Reference: PubChem BioAssay AID330 (DTP/NCI, 2004)
“And” between values parts separate entries of the source, which are not always exact repeats. Equal entries are not always repeated. Inconclusive results and toxic doses are left out. Rule for the calls: active = survival T/C of 150% or more; inactive = T/C below 125% in these data.

Tested on: P388 leukemia ip, CD2F1 mice, survival T/C
Assay: NCI In Vivo Anticancer Drug Screen. Data for tumor model P388 Leukemia (intraperitoneal) in CD2F1 (CDF1) mice
Settings: endpoint: median survival time, higher = longer survival
Outline: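 Mice carrying the transplanted tumor received test compound or vehicle. Survival was recorded in each group, and the value is the treated-group measurement divided by that of the vehicle-treated control group.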

Measured: T/C

CSC(=S)n1nc(-c2ccccc2)c(N=Nc2ccccc2[N+](=O)[O-])c1-c1ccccc1
inactive: dose: 100.0 mg/kg/injection, schedule: Q04DX002 (ip), vehicle: Klucel (hydroxypropylcellulose) (HPC) 105 % of control | dose: 200.0 mg/kg/injection, schedule: Q04DX002 (ip), vehicle: Klucel (hydroxypropylcellulose) (HPC) 97 % of control

CC(=O)NC(C=O)C(OC(C)C(=O)NC(C)C(=O)NC(CCC(N)=O)C(=O)O)C(OC1OC(CO)C(O)C(O)C1NC(C)=O)C(O)CO (centres undefined)
inactive: dose: 6.25 mg/kg/injection, schedule: Q01DX005 (ip), vehicle: saline 111 % of control | dose: 12.5 mg/kg/injection, schedule: Q01DX005 (ip), vehicle: saline 112 % of control | dose: 25.0 mg/kg/injection, schedule: Q01DX005 (ip), vehicle: saline 112 % of control | dose: 50.0 mg/kg/injection, schedule: Q01DX005 (ip), vehicle: saline 116 % of control

COc1cccc(/C=C2/C(=O)N(Cc3ccco3)SC2=S)c1OC
inactive: dose: 50.0 mg/kg/injection, schedule: Q01DX009 (ip), vehicle: Klucel (hydroxypropylcellulose) (HPC) 97 % of control | dose: 100.0 mg/kg/injection, schedule: Q01DX009 (ip), vehicle: Klucel (hydroxypropylcellulose) (HPC) 95 % of control | dose: 200.0 mg/kg/injection, schedule: Q01DX009 (ip), vehicle: Klucel (hydroxypropylcellulose) (HPC) 92 % of control

CCOc1cccc(/C=N/n2c(C)nc3ccccc3c2=O)c1O
inactive: dose: 50.0 mg/kg/injection, schedule: Q01DX009 (ip), vehicle: saline with Tween-80 101 % of control | dose: 100.0 mg/kg/injection, schedule: Q01DX009 (ip), vehicle: saline with Tween-80 102 % of control | dose: 200.0 mg/kg/injection, schedule: Q01DX009 (ip), vehicle: saline with Tween-80 96 % of control

COC(=O)C12OCC34C(CC5C(C)=C(O)C(=O)CC5(C)C3C(O)C1O)OC(=O)C(OC(=O)C=C(C)C)C24 (centres undefined) (tested in a mixture with another compound)
inactive: dose: 0.03 mg/kg/injection, schedule: Q01DX009 (ip), vehicle: saline + alcohol 106 % of control | dose: 0.06 mg/kg/injection, schedule: Q01DX009 (ip), vehicle: saline + alcohol 113 % of control | dose: 0.13 mg/kg/injection, schedule: Q01DX009 (ip), vehicle: saline + alcohol 107 % of control | dose: 0.25 mg/kg/injection, schedule: Q01DX009 (ip), vehicle: saline + alcohol 98 % of control | dose: 0.5 mg/kg/injection, schedule: Q01DX009 (ip), vehicle: saline + alcohol 94 % of control | dose: 1.0 mg/kg/injection, schedule: Q01DX009 (ip), vehicle: saline + alcohol 106 % of control | dose: 2.0 mg/kg/injection, schedule: Q01DX009 (ip), vehicle: saline + alcohol 94 % of control

C=CCSc1nc2ccc(N=Cc3ccccc3O)cc2s1
inactive: dose: 100.0 mg/kg/injection, schedule: Q04DX003 (ip), vehicle: Klucel (hydroxypropylcellulose) (HPC) 88 % of control | dose: 200.0 mg/kg/injection, schedule: Q04DX003 (ip), vehicle: Klucel (hydroxypropylcellulose) (HPC) 91 % of control | dose: 400.0 mg/kg/injection, schedule: Q04DX003 (ip), vehicle: Klucel (hydroxypropylcellulose) (HPC) 92 % of control

O=C(OC1CCC2(CC1)N=NC1(CCC(OC(=O)c3ccccc3)CC1)S2)c1ccccc1 (centres undefined)
inactive: dose: 50.0 mg/kg/injection, schedule: Q01DX009 (ip), vehicle: saline 98 % of control | dose: 100.0 mg/kg/injection, schedule: Q01DX009 (ip), vehicle: saline 97 % of control | dose: 200.0 mg/kg/injection, schedule: Q01DX009 (ip), vehicle: saline 101 % of control

CCCCOB(OCCCC)C(C)C(C#N)C#N (centres undefined)
inactive: dose: 50.0 mg/kg/injection, schedule: Q04DX003 (ip), vehicle: saline 92 % of control | dose: 100.0 mg/kg/injection, schedule: Q04DX003 (ip), vehicle: saline 92 % of control | dose: 200.0 mg/kg/injection, schedule: Q04DX003 (ip), vehicle: saline 96 % of control

O=[N+]([O-])C1=NOCC1
inactive: dose: 50.0 mg/kg/injection, schedule: Q01DX005 (ip), vehicle: suspension in saline 95 % of control | dose: 100.0 mg/kg/injection, schedule: Q01DX005 (ip), vehicle: suspension in saline 95 % of control

O=C1Cc2c(Cl)cccc2C(=S)N1
inactive: dose: 50.0 mg/kg/injection, schedule: Q01DX001 (ip), vehicle: saline with Tween-80 100 % of control | dose: 100.0 mg/kg/injection, schedule: Q01DX001 (ip), vehicle: saline with Tween-80 100 % of control | dose: 200.0 mg/kg/injection, schedule: Q01DX001 (ip), vehicle: saline with Tween-80 100 % of control

ClC1=NOC(c2ccccc2)C1 (centres undefined)
inactive: dose: 6.25 mg/kg/injection, schedule: Q01DX005 (ip), vehicle: distilled water + Tween-80 110 % of control | dose: 12.5 mg/kg/injection, schedule: Q01DX005 (ip), vehicle: distilled water + Tween-80 97 % of control | dose: 25.0 mg/kg/injection, schedule: Q01DX005 (ip), vehicle: distilled water + Tween-80 100 % of control | dose: 50.0 mg/kg/injection, schedule: Q01DX005 (ip), vehicle: distilled water + Tween-80 105 % of control and 107 % of control | dose: 100.0 mg/kg/injection, schedule: Q01DX005 (ip), vehicle: distilled water + Tween-80 99 % of control | dose: 200.0 mg/kg/injection, schedule: Q01DX005 (ip), vehicle: distilled water + Tween-80 108 % of control
